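Assay format: 96-well plates, 48-hour exposure. GI50 is the concentration that inhibits growth by half. TGI denotes the concentration required for complete inhibition of growth.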
Assays:
Experiment in all cases: DTP human tumour cell line panel, 48 h
COLO 205 colon = tested on: COLO 205 colon
SW-620 colon = tested on: SW-620 colon
SF-268 CNS = tested on: SF-268 CNS
LOX IMVI melanoma = tested on: LOX IMVI melanoma
MDA-MB-435 = tested on: MDA-MB-435
NCI-H522 lung = tested on: NCI-H522 lung
786-0 renal = tested on: 786-0 renal
SK-MEL-28 melanoma = tested on: SK-MEL-28 melanoma
HOP-62 NSCLC = tested on: HOP-62 NSCLC
ACHN renal = tested on: ACHN renal
HS 578T breast = tested on: HS 578T breast
PC-3 prostate = tested on: PC-3 prostate
SK-OV-3 ovarian = tested on: SK-OV-3 ovarian
TK-10 renal = tested on: TK-10 renal
NCI-H460 lung = tested on: NCI-H460 lung
MCF7 breast = tested on: MCF7 breast
T-47D breast = tested on: T-47D breast
OVCAR-5 ovarian = tested on: OVCAR-5 ovarian
NCI/ADR-RES ovarian = tested on: NCI/ADR-RES ovarian
RPMI-8226 leukemia = tested on: RPMI-8226 leukemia
OVCAR-4 ovarian = tested on: OVCAR-4 ovarian
BT-549 breast = tested on: BT-549 breast
UACC-257 melanoma = tested on: UACC-257 melanoma
IGROV1 ovarian = tested on: IGROV1 ovarian
CAKI-1 renal = tested on: CAKI-1 renal
NCI-H226 lung = tested on: NCI-H226 lung
SF-539 CNS = tested on: SF-539 CNS
U251 CNS = tested on: U251 CNS
HOP-92 NSCLC = tested on: HOP-92 NSCLC
DU-145 prostate = tested on: DU-145 prostate
NCI-H23 lung = tested on: NCI-H23 lung
MDA-MB-231 breast = tested on: MDA-MB-231 breast
HL-60(TB) leukemia = tested on: HL-60(TB) leukemia
OVCAR-8 ovarian = tested on: OVCAR-8 ovarian
A498 renal = tested on: A498 renal
SNB-75 CNS = tested on: SNB-75 CNS
SF-295 CNS = tested on: SF-295 CNS
SK-MEL-2 melanoma = tested on: SK-MEL-2 melanoma
MOLT-4 leukemia = tested on: MOLT-4 leukemia
UACC-62 melanoma = tested on: UACC-62 melanoma
SN12C renal = tested on: SN12C renal
EKVX NSCLC = tested on: EKVX NSCLC
SK-MEL-5 melanoma = tested on: SK-MEL-5 melanoma
SNB-19 CNS = tested on: SNB-19 CNS
HCC-2998 colon = tested on: HCC-2998 colon
UO-31 renal = tested on: UO-31 renal
SR leukemia = tested on: SR leukemia
OVCAR-3 ovarian = tested on: OVCAR-3 ovarian
CCRF-CEM leukemia = tested on: CCRF-CEM leukemia
K-562 leukemia = tested on: K-562 leukemia
HCT-116 colon = tested on: HCT-116 colon
HCT-15 colon = tested on: HCT-15 colon
KM12 colon = tested on: KM12 colon
RXF 393 renal = tested on: RXF 393 renal
A549 NSCLC = tested on: A549 NSCLC
M14 melanoma = tested on: M14 melanoma
MALME-3M melanoma = tested on: MALME-3M melanoma

O=C1c2c(Cl)c(Cl)c(Cl)c(Cl)c2C(=O)C2(Cl)CC=CCC12Cl (centres undefined)
GI50 (COLO 205 colon): 1520 nM
TGI (COLO 205 colon): 2890 nM
GI50 (SW-620 colon): 1490 nM
TGI (SW-620 colon): 3.08 µM
GI50 (SF-268 CNS): 1760 nM
TGI (SF-268 CNS): 3.2 µM
GI50 (LOX IMVI melanoma): 1210 nM
TGI (LOX IMVI melanoma): 2560 nM
GI50 (MDA-MB-435): 2060 nM
TGI (MDA-MB-435): 4.32 µM
GI50 (NCI-H522 lung): 1760 nM
TGI (NCI-H522 lung): 3.52 µM
GI50 (786-0 renal): 2000 nM
TGI (786-0 renal): 3.62 µM
GI50 (SK-MEL-28 melanoma): 1800 nM
TGI (SK-MEL-28 melanoma): 3.28 µM
GI50 (HOP-62 NSCLC): 1860 nM
TGI (HOP-62 NSCLC): 3.65 µM
GI50 (ACHN renal): 1890 nM
TGI (ACHN renal): 3.37 µM
GI50 (HS 578T breast): 2040 nM
TGI (HS 578T breast): 5.88 µM
GI50 (PC-3 prostate): 1800 nM
TGI (PC-3 prostate): 3.51 µM
GI50 (SK-OV-3 ovarian): 2920 nM
TGI (SK-OV-3 ovarian): 10.9 µM
GI50 (TK-10 renal): 2060 nM
TGI (TK-10 renal): 3.57 µM
GI50 (NCI-H460 lung): 3.09 µM
TGI (NCI-H460 lung): 11 µM
GI50 (MCF7 breast): 1580 nM
TGI (MCF7 breast): 3.55 µM
GI50 (T-47D breast): 1740 nM
TGI (T-47D breast): 4.01 µM
GI50 (OVCAR-5 ovarian): 2510 nM
TGI (OVCAR-5 ovarian): 5.74 µM
GI50 (NCI/ADR-RES ovarian): 3.41 µM
TGI (NCI/ADR-RES ovarian): 13.2 µM
GI50 (RPMI-8226 leukemia): 2310 nM
TGI (RPMI-8226 leukemia): 6.12 µM
GI50 (OVCAR-4 ovarian): 1900 nM
TGI (OVCAR-4 ovarian): 3.41 µM
GI50 (BT-549 breast): 1850 nM
TGI (BT-549 breast): 3.38 µM
GI50 (UACC-257 melanoma): 1530 nM
TGI (UACC-257 melanoma): 2950 nM
GI50 (IGROV1 ovarian): 1810 nM
TGI (IGROV1 ovarian): 3.86 µM
GI50 (CAKI-1 renal): 1930 nM
TGI (CAKI-1 renal): 3.68 µM
GI50 (NCI-H226 lung): 1970 nM
TGI (NCI-H226 lung): 4.88 µM
GI50 (SF-539 CNS): 2060 nM
TGI (SF-539 CNS): 4.05 µM
GI50 (U251 CNS): 1670 nM
TGI (U251 CNS): 3.06 µM
GI50 (HOP-92 NSCLC): 2030 nM
TGI (HOP-92 NSCLC): 3.87 µM
GI50 (DU-145 prostate): 1930 nM
TGI (DU-145 prostate): 3.36 µM
GI50 (NCI-H23 lung): 1840 nM
TGI (NCI-H23 lung): 3.94 µM
GI50 (MDA-MB-231 breast): 1710 nM
TGI (MDA-MB-231 breast): 3.13 µM
GI50 (HL-60(TB) leukemia): 1900 nM
TGI (HL-60(TB) leukemia): 5.04 µM
GI50 (OVCAR-8 ovarian): 1640 nM
TGI (OVCAR-8 ovarian): 3.12 µM
GI50 (A498 renal): 12.7 µM
TGI (A498 renal): 25.3 µM
GI50 (SNB-75 CNS): 1840 nM
TGI (SNB-75 CNS): 3.34 µM
GI50 (SF-295 CNS): 3.35 µM
TGI (SF-295 CNS): 11.2 µM
GI50 (SK-MEL-2 melanoma): 2480 nM
TGI (SK-MEL-2 melanoma): 4.89 µM
GI50 (MOLT-4 leukemia): 2390 nM
TGI (MOLT-4 leukemia): 6.36 µM
GI50 (UACC-62 melanoma): 1670 nM
TGI (UACC-62 melanoma): 3.27 µM
GI50 (SN12C renal): 1780 nM
TGI (SN12C renal): 3.22 µM
GI50 (EKVX NSCLC): 2640 nM
TGI (EKVX NSCLC): 7.81 µM
GI50 (SK-MEL-5 melanoma): 1770 nM
TGI (SK-MEL-5 melanoma): 3.79 µM
GI50 (SNB-19 CNS): 1640 nM
TGI (SNB-19 CNS): 3.01 µM
GI50 (HCC-2998 colon): 1780 nM
TGI (HCC-2998 colon): 3.3 µM
GI50 (UO-31 renal): 1710 nM
TGI (UO-31 renal): 3.28 µM
GI50 (SR leukemia): 1150 nM
TGI (SR leukemia): 4.38 µM
GI50 (OVCAR-3 ovarian): 2020 nM
TGI (OVCAR-3 ovarian): 3.48 µM
GI50 (CCRF-CEM leukemia): 1760 nM
TGI (CCRF-CEM leukemia): 7.28 µM
GI50 (K-562 leukemia): 1090 nM
TGI (K-562 leukemia): 3.59 µM
GI50 (HCT-116 colon): 1760 nM
TGI (HCT-116 colon): 3.32 µM
GI50 (HCT-15 colon): 1190 nM
TGI (HCT-15 colon): 2830 nM
GI50 (KM12 colon): 1840 nM
TGI (KM12 colon): 3.56 µM
GI50 (RXF 393 renal): 1630 nM
TGI (RXF 393 renal): 3.01 µM
GI50 (A549 NSCLC): 4.28 µM
TGI (A549 NSCLC): 16.3 µM
GI50 (M14 melanoma): 1670 nM
TGI (M14 melanoma): 3.19 µM
GI50 (MALME-3M melanoma): 2030 nM
TGI (MALME-3M melanoma): 4.16 µM
